{"source": "patent US20050245461A1", "about": "“Methods for treating alcoholism” (priority 2004, published 2005)", "key": {"[1]": {"test_system": "ethanol drinking (lever presses for ethanol cocktail)", "experiment": "rat model of alcohol self-administration (operant lever pressing for 10% ethanol cocktail)", "settings": "for effect on naltrexone's ability to decrease drinking when coadministered: coadministered with naltrexone, conclusion of Example 1; for ED50: Rattus norvegicus; for Lever Presses (Mean ± SEM): 30 min session", "method": "Male Wistar rats (starting weight of 200±30 grams; Charles River Laboratories, MA) were individually housed with free access to food and water. […] These conditions were recorded once daily throughout the study.\nAnimals were trained daily in an operant chamber to press a lever to receive access to an ethanol cocktail as a reinforcer using a saccharin fading procedure. […] The final ethanol cocktail contained 10% ethanol in 0.04% saccharine. Each session lasted 30 minutes, during which the rat could press the lever twice to gain access to 0.1 mL of the ethanol cocktail. The operant chamber (Coulbourn Instruments, Allentown, Pa.) is a computer-controlled automated system which recorded the number of lever presses completed by a rat. At the end of the training period (6-8 weeks), rats which consistently drank a sufficient quantity of ethanol to produce a pharmacological effect (minimum intake of 0.6 g/kg/hour) were selected to participate in the drug studies. These trained rats were used repeatedly throughout these studies to control for intra-subject variability. All drugs were administered acutely with a minimum of a 2 day drug washout period.\nNaltrexone was prepared daily in 0.9% saline and administered subcutaneously (SC). The anticonvulsants (gabapentin, carbamazepine, levetiracetam and lamotrigine) were suspended in 3% carboxymethyl cellulose; a total volume of 1 mL/kg of this suspension was delivered orally (PO) to the rat using a gavage tube.\nThe ability of naltrexone to reduce ethanol drinking (i.e., decrease the number of lever presses) was assessed in this animal model of self administration of ethanol. […] The total number of lever presses was recorded over the 30 minute test session. […] An anticonvulsant (gabapentin, carbamazepine, levetiracetam or lamotrigine) was coadministered with naltrexone to determine if it affected naltrexone's ability to decrease ethanol drinking. […] This dose allows one to determine if the co-administered drugs impaired or enhanced naltrexone's effect on ethanol drinking. The anticonvulsants were administered orally 30 minutes prior to a naltrexone injection (SC) (i.e., 60 minutes prior to the beginning of the ethanol drinking test session). The number of lever presses for the ethanol cocktail was recorded at the end of the 30 minute session."}, "alcohol withdrawal": {"test_system": "alcohol withdrawal", "settings": "literature (Myrick 1998; Karam-Hage 2000; Minuk 1995); cited from earlier work"}, "[2]": {"test_system": "audiogenic-induced convulsions", "experiment": "audiogenic-induced convulsions in mouse model of alcohol withdrawal", "method": "These conditions were recorded once daily throughout the study.\nAlcohol is provided in a nutritionally balanced liquid diet."}, "[3]": {"experiment": "pharmacokinetic study: naltrexone in plasma alone or coadministered with gabapentin", "type": "in vivo, rat", "settings": "vehicle+naltrexone vs gabapentin+naltrexone (gabapentin 1 mg/kg, naltrexone 0.5 mg/kg), rats", "procedure": "FIG. 3C is a line graph showing the amount of naltrexone in the plasma over a period of time for naltrexone administered alone or naltrexone coadministered with gabapentin.\nTo determine if this drug interaction might be effective in decreasing ethanol drinking with lower doses of naltrexone, the dose of gabapentin (1 mg/kg) was kept constant and the dose of naltrexone varied from 0.05 to 3.0 mg/kg (FIG. 3B). […] To determine if gabapentin may be altering the plasma profile of naltrexone at this dose combination, a pharmacokinetic study was run in a separate cohort group of rats."}, "[4]": {"settings": "anticonvulsant 0.1 mg/kg PO + naltrexone 0.1 mg/kg SC"}, "[5]": {"settings": "anticonvulsant 1.0 mg/kg PO + naltrexone 0.1 mg/kg SC"}, "[6]": {"settings": "anticonvulsant 10.0 mg/kg PO + naltrexone 0.1 mg/kg SC"}}, "note": "“Also recorded” adds a separate entry of the source. Read-outs that look alike come from different tables or passages of the source."}
{"compound": "CC[C@@H](C(N)=O)N1CCCC1=O", "note": "(single isomer, unassigned) [Levetiracetam]", "values": [{"measurement": "Number of Lever Presses (mean ± sem)", "setting": "[1]; anticonvulsant 1.0 mg/kg PO + naltrexone 0.5 mg/kg SC", "value": "34 ± 11"}, {"measurement": "Number of Lever Presses (mean ± sem)", "setting": "[1]; anticonvulsant 10.0 mg/kg PO + naltrexone 0.5 mg/kg SC", "value": "36 ± 8"}, {"measurement": "Number of Lever Presses (mean ± sem)", "setting": "[1]; anticonvulsant 100.0 mg/kg PO + naltrexone 0.5 mg/kg SC", "value": "34 ± 9"}, {"measurement": "effect on naltrexone's ability to decrease drinking when coadministered", "setting": "[1]", "value": "did not impair or block"}, {"measurement": "difference between naltrexone (with vehicle) and combination with naltrexone, lever presses", "setting": "[1]; levetiracetam 1-100 mg/kg PO + naltrexone 0.5 mg/kg SC", "value": "no significant differences"}]}
{"compound": "1-(aminomethyl)cyclohexane acetic acid [Gabapentin]", "values": [{"measurement": "effect on naltrexone's ability to decrease drinking when coadministered", "setting": "[1]", "value": "did not impair or block"}, {"measurement": "enhancement of naltrexone's effect on alcohol drinking", "setting": "[1]; coadministration of gabapentin, narrow therapeutic window", "value": "enhanced naltrexone's effects of alcohol drinking"}, {"measurement": "ethanol drinking, combination compared to naltrexone alone", "setting": "[1]; gabapentin 1 mg/kg PO plus naltrexone 0.5 mg/kg SC, p<0.006", "value": "further significant decrease"}, {"measurement": "difference in number of lever presses, naltrexone alone vs combined with gabapentin", "setting": "[1]; gabapentin 1 mg/kg constant, naltrexone 0.05 to 3.0 mg/kg, except at 0.5 mg/kg naltrexone", "value": "No differences"}, {"measurement": "potentiation of naltrexone's decrease in ethanol drinking", "setting": "[1]; gabapentin 0.1 and 10.0 mg/kg coadministered with naltrexone 0.5 mg/kg", "value": "not seen"}, {"measurement": "effect on lever pressing for ethanol compared to non-drug treated conditions", "setting": "[1]; gabapentin alone, 1 or 10 mg/kg", "value": "neither gabapentin at 1 or 10 mg/kg alone had any effect"}, {"measurement": "safety and efficacy as alternatives to benzodiazepines for the treatment of alcohol withdrawal", "setting": "alcohol withdrawal", "value": "safe and efficacious"}]}
{"compound": "Nc1nnc(-c2cccc(Cl)c2Cl)c(N)n1", "note": "[Lamotrigine, 6-(2,3-dichlorophenyl)-1,2,4-trizine-3,5-diamine]", "values": [{"measurement": "Number of Lever Presses (mean ± sem)", "setting": "[1]; [4]", "value": "61 ± 13"}, {"measurement": "Number of Lever Presses (mean ± sem)", "setting": "[1]; [5]", "value": "60 ± 13"}, {"measurement": "Number of Lever Presses (mean ± sem)", "setting": "[1]; [6]", "value": "567 ± 10"}, {"measurement": "effect on naltrexone's ability to decrease drinking when coadministered", "setting": "[1]", "value": "did not impair or block"}, {"measurement": "effect of combination with naltrexone on number of lever presses for ethanol", "setting": "[1]; lamotrigine 0.1-10 mg/kg PO + naltrexone 0.1 mg/kg SC", "value": "did not significantly affect"}]}
{"compound": "O=C1CC[C@@]2(O)[C@H]3Cc4ccc(O)c5c4[C@@]2(CCN3CC2CC2)[C@H]1O5", "note": "[Naltrexone]", "values": [{"measurement": "exacerbation of audiogenic-induced convulsions", "setting": "[2]; naltrexone 3 mg/kg with carbamazepine 10 mg/kg, mice with alcohol withdrawal symptoms", "value": "did not exacerbate"}, {"measurement": "interaction with carbamazepine's anticonvulsant activity", "setting": "[2]; naltrexone 3 mg/kg, carbamazepine 10 mg/kg", "value": "did not appear to interact"}, {"measurement": "plasma profile of naltrexone, difference between treatment groups", "setting": "[3]", "value": "no statistical difference"}, {"measurement": "ED50", "setting": "[1]; read-out: ED50 re-established", "value": 0.1, "unit": "mg/kg"}, {"measurement": "ED50", "setting": "[1]; sc, read-out: ED50 (dose reducing lever responding for ethanol by approximately 50% compared to baseline)", "value": 0.5, "unit": "mg/kg"}, {"measurement": "ED50", "setting": "[1]; sc, read-out: ED50 for decrease in number of lever presses", "value": "0.1 to 0.5", "unit": "mg/kg"}, {"measurement": "decrease in lever presses vs baseline and vehicle control", "setting": "[1]; lowest dose of naltrexone tested, 0.05 mg/kg", "value": "no significant decrease"}, {"measurement": "dose dependence of decrease in number of lever presses", "setting": "[1]; naltrexone 0-6 mg/kg SC", "value": "dose-dependent decrease"}, {"measurement": "Approximate Absolute Ethanol Consumed", "setting": "[1]; naltrexone 0.05 mg/kg SC", "value": "~1.0", "unit": "g/kg"}, {"measurement": "Lever Presses (Mean ± SEM)", "setting": "[1]; naltrexone 0.05 mg/kg SC", "value": "132 ± 13.3"}, {"measurement": "Approximate Absolute Ethanol Consumed", "setting": "[1]; naltrexone 0.1 mg/kg SC", "value": "~0.7", "unit": "g/kg"}, {"measurement": "Lever Presses (Mean ± SEM)", "setting": "[1]; naltrexone 0.1 mg/kg SC", "value": "88 ± 8.6"}, {"measurement": "decrease in number of lever presses from the baseline", "setting": "[1]; naltrexone 0.1 mg/kg, carbamazepine study", "value": 42.4, "unit": "%"}, {"measurement": "Approximate Absolute Ethanol Consumed", "setting": "[1]; naltrexone 0.5 mg/kg SC", "value": "~0.6", "unit": "g/kg"}, {"measurement": "Lever Presses (Mean ± SEM)", "setting": "[1]; naltrexone 0.5 mg/kg SC", "value": "83 ± 12.1"}, {"measurement": "decrease in lever responding for ethanol compared to non-drug baseline", "setting": "[1]; naltrexone 0.5 mg/kg SC, levetiracetam study", "value": 65, "unit": "%"}, {"measurement": "specificity of decrease in drinking for ethanol versus saccharine", "setting": "[1]; naltrexone 0.5 mg/kg SC, 0.1% saccharine solution substituted for ethanol cocktail", "value": "specific for ethanol; also recorded: selective for decreasing ethanol drinking"}, {"measurement": "Approximate Absolute Ethanol Consumed", "setting": "[1]; naltrexone 1.0 mg/kg SC", "value": "~0.3", "unit": "g/kg"}, {"measurement": "Lever Presses (Mean ± SEM)", "setting": "[1]; naltrexone 1.0 mg/kg SC", "value": "43 ± 8.6"}, {"measurement": "Approximate Absolute Ethanol Consumed", "setting": "[1]; naltrexone 3.0 mg/kg SC", "value": "~0.2", "unit": "g/kg"}, {"measurement": "Lever Presses (Mean ± SEM)", "setting": "[1]; naltrexone 3.0 mg/kg SC", "value": "24 ± 8.1"}, {"measurement": "Approximate Absolute Ethanol Consumed", "setting": "[1]; naltrexone 6.0 mg/kg SC", "value": "~0.2", "unit": "g/kg"}, {"measurement": "Lever Presses (Mean ± SEM)", "setting": "[1]; naltrexone 6.0 mg/kg SC", "value": "21 ± 5.5"}, {"measurement": "effect on decreasing ethanol drinking at higher doses", "setting": "[1]; naltrexone 3 and 6 mg/kg", "value": "appeared to plateau"}, {"measurement": "decrease in number of lever presses for ethanol compared to non-drug baseline", "setting": "[1]; naltrexone ED50 dose (0.5 mg/kg), gabapentin study", "value": 54, "unit": "%"}, {"measurement": "reduction in lever pressing for ethanol", "setting": "[1]; naltrexone alone 0.5 mg/kg, additional testing, most of the animals", "value": "greater than 50%"}, {"measurement": "decrease in lever responding for ethanol compared to non-drug baseline", "setting": "[1]; naltrexone alone (0.1 mg/kg SC), lamotrigine study", "value": 49, "unit": "%"}, {"measurement": "Number of Lever Presses (mean ± sem)", "setting": "[1]; vehicle (drug dose 0.0) PO + naltrexone 0.1 mg/kg SC, carbamazepine study", "value": "67 ± 17"}, {"measurement": "Number of Lever Presses (mean ± sem)", "setting": "[1]; vehicle (drug dose 0.0) PO + naltrexone 0.1 mg/kg SC, lamotrigine study", "value": "74 ± 18"}, {"measurement": "Number of Lever Presses (mean ± sem)", "setting": "[1]; vehicle (drug dose 0.0) PO + naltrexone 0.5 mg/kg SC, levetiracetam study", "value": "50 ± 10"}]}
{"compound": "CCCC(CCC)C(=O)O", "note": "[valproic acid, 2-propylpentanoic acid]", "values": [{"measurement": "safety and efficacy as alternatives to benzodiazepines for the treatment of alcohol withdrawal", "setting": "alcohol withdrawal", "value": "safe and efficacious"}]}
{"compound": "NC(=O)N1c2ccccc2C=Cc2ccccc21", "note": "[Carbamazepine, 5H-dibenz [b,f] azepine-5-carboxamide]", "values": [{"measurement": "Withdrawal Rating (mean ± sem), behavioral response scale of 1-4", "setting": "[2]; carbamazepine 10 mg/kg PO + saline", "value": "1.1 ± 0.1"}, {"measurement": "difference between drug groups on the audiogenic convulsion test", "setting": "[2]; carbamazepine 10 mg/kg with/without naltrexone 3 mg/kg, p=0.18", "value": "no statistical differences"}, {"measurement": "Number of Lever Presses (mean ± sem)", "setting": "[1]; [4]", "value": "68 ± 10"}, {"measurement": "Number of Lever Presses (mean ± sem)", "setting": "[1]; [5]", "value": "49 ± 8"}, {"measurement": "Number of Lever Presses (mean ± sem)", "setting": "[1]; [6]", "value": "48 ± 9"}, {"measurement": "effect of combination with naltrexone on ethanol drinking", "setting": "[1]; carbamazepine 0.1-10.0 mg/kg PO + naltrexone 0.1 mg/kg", "value": "did not significantly affect"}, {"measurement": "effect on naltrexone's ability to decrease drinking when coadministered", "setting": "[1]", "value": "did not impair or block"}]}
